Laboratory results published in patent publication US20250090437A1, “COSMETIC COMPOUNDING AGENT, COSMETIC AND PRODUCTION METHOD THEREOF” (MIYOSHI OIL & FAT CO., LTD., priority 2019, published 2025).

Assay: Water retention property test 1
Assay type: physicochemical
Conditions: 80 wt % aqueous solution; for Water retention property test 1 Post-test moisture rate / Water retention property test 1 Rate of reduction in moisture: 24 hours at 40° C. and 25% RH
Method: A moisture rate after 24 hours was again measured (post-test moisture rate: B), followed by using the formula below to calculate a rate of reduction in moisture so as to evaluate the water retention property. • Pre-test moisture rate: A (%) • Post-test moisture rate: B (%)

Structure (SMILES)	Water retention property test 1 Pre-test moisture rate	Water retention property test 1 Post-test moisture rate [%]	Water retention property test 1 Rate of reduction in moisture [%]
CC(O)C(=O)O.NCCO (stereo not drawn) [Compound C1]	20.0%	19.3	3.5
CC(O)C(=O)O.OCCNCCO [Compound C2]	20.0%	19.0	4.8
NC(CO)(CO)CO.O=C(O)CC(O)(CC(=O)O)C(=O)O [Compound C21]	20.0% 20.0%	19.0	5.1
CS(=O)(=O)O.NC(CO)(CO)CO [Compound C22]	20.0%	19.8	1.2
CC(O)C(=O)O.N (stereo not drawn) [Compound C24]	20.0%	19.0	4.9
CC(O)C(=O)[O-].CCC(CO)(CO)[N+](CC(O)CO)(CC(O)CO)CC(O)CO (stereo not drawn) [Compound C25]	20.0%	19.0	5.0
CC(O)C(=O)[O-].OCC[N+](CCO)(CCO)CCO [Compound C26]	20.0%	19.0	5.0
CC(=O)[O-].C[N+](C)(C)CCO [Compound C27]	20.0%	19.0	5.0
C[N+](C)(C)CCO.O=C([O-])CO [Compound C28]	20.0%	19.4	3.0
C[N+](C)(C)CCO.O=C([O-])C=CC(=O)O [Compound C30]	20.0%	19.0	5.5
C[N+](C)(C)CCO.O=C([O-])CCC(=O)O [Compound C31]	20.0%	19.0	5.5
CS(=O)(=O)[O-].C[N+](C)(C)CCO [Compound C32]	20.0%	19.6	2.2
C[N+](C)(C)CCO.O=P([O-])(O)O [Compound C33]	20.0%	19.4	3.0
C[N+](C)(C)CCO.O=[PH2][O-] [Compound C34]	20.0%	19.4	3.0
CC[N+](C)(C)CCO.CS(=O)(=O)[O-] [Compound C36]	20.0%	19.6	2.0
C[N+](C)(CCO)CC(O)CO.[Cl-] (stereo not drawn) [Compound C37]	20.0%	18.3	8.3
C[N+](C)(CCO)CC(O)C[N+](C)(C)CCO.[Cl-].[Cl-] [Compound C38]	20.0%	18.1	9.5
NCCO.O=C1OC(C(O)CO)C(O)=C1O (stereo not drawn) [Compound C40]	20.0%	19.5	2.3
O=C1OC(C(O)CO)C(O)=C1O.OCCNCCO (stereo not drawn) [Compound C41]	20.0%	19.2	4.1
O=C1OC(C(O)CO)C(O)=C1O.OCCN(CCO)CCO (stereo not drawn) [Compound C42]	20.0%	19.1	4.4
